What was measured:
[1] = test system: BaF3 EGFR-DTC(C797S/T790M/Del19) cells; test: In-vivo pharmacodynamic study, transplanted tumor model of BaF3 EGFR-DTC(C797S/T790M/Del19) cells in nude mice; parameters: species or system BALB/c nude mice
Experimental: The models used in this test were subcutaneous transplanted tumor models of engineered BaF3 EGFR-DTC(C797S/T790M/Del19) cells in BALB/c nude mice. The engineered BaF3 cells were cultured in vitro suspension. […] Passages were treated twice a week. When the cell number reached requirement, the cells were collected, counted and inoculated. 0.2 mL (10^6) cells (added with matrigel, 1:1 by volume) were subcutaneously inoculated in the right back of each mouse, and divided into groups for administration with 6 mice per group when the mean tumor volume reached 109 mm^3.
Administration mode and frequency: Oral gavage was carried out with an administration volume of 10 mL/kg, and the model group was administered with the same volume of solvent. The administration was once per day and continuously carried out for 14 days.
General conditions such as spirit, activity, food intake and the like of the mice were observed every day, and the weight was measured thrice every week; the short diameter (a) and the long diameter (b) of each mouse tumor were measured thrice a week with a vernier caliper, and the tumor volume was calculated according to the formula (a^2×b)/2. The Relative Tumor Volume (RTV) was calculated from the measured tumor volume, wherein RTV=Vt/V0, wherein V0 was the tumor volume at random grouping (i.e., d0) and Vt was the tumor volume at each measurement (i.e., dn). The relative tumor proliferation rate of the evaluation index of the anti-tumor activity was calculated according to the following formula: relative tumor proliferation rate T/C (%): […]
(Note: TRTV: treatment group RTV; CRTV: model control group RTV. According to the therapeutic effect evaluation standard in the Technical Guidelines for Non-clinical Research of Cytotoxic Anti-tumor Drugs Issued by National Medical Products Administration of China, the value (T/C %≤40%) was effective).

[2] = Pharmacokinetic test in SD rats; type: in vivo; settings: male, rat, plasma, PO, 20 mg/kg
Experimental: Six SD rats were taken, which were all male, and about 8-9 weeks old, weighing about 430 g/rat, and fasting but allowed to drink water for 18 hours.
The rats were divided into two groups, wherein the rats in group 1 were dosed with compound 2 and the rats in group 2 were dosed with control compound 4, both orally and intragastrically in a dose of 20 mg/kg. A lavage fluid was prepared using 70 mM citric acid buffer (pH 3.0) at an administration volume of 5 mL/kg.
0.6 mL of blood (EDTA-2K anti-coagulated) was collected from rat orbits at 0.5, 1.5, 3, 4.5, 8, 12, 24, 36, 48 and 72 hours after the administration respectively. The plasma was separated and stored at −70° C., and the plasma samples were analyzed using liquid chromatography tandem mass spectrometry (LC-MS/MS). The plasma concentration-time data of the individual rates was analyzed using a non-compartmental model of DAS3.3.1 software and pharmacokinetic parameters of the test compounds were calculated.

[3] = 25 mg/kg oral gavage once per day
[4] = 50 mg/kg oral gavage once per day

COc1cc(N2CCC(N3CCN(C)CC3)CC2)c(C)cc1Nc1ncc(Br)c(Nc2ccc(C)cc2P(C)(C)=O)n1 [Compound 2]
Tumor volume Day 0 [1, 3]: 109 mm^3 | Relative tumor proliferation rate T/C Day 3 [1, 3]: 59.22% | Tumor volume Day 3 [1, 3]: 87 mm^3 | Relative tumor proliferation rate T/C Day 5 [1, 3]: 34.07% | Tumor volume Day 5 [1, 3]: 62 mm^3 | Relative tumor proliferation rate T/C Day 7 [1, 3]: 10.38% | Tumor volume Day 7 [1, 3]: 41 mm^3 | Relative tumor proliferation rate T/C Day 10 [1, 3]: 5.06% | Tumor volume Day 10 [1, 3]: 31 mm^3 | Relative tumor proliferation rate T/C Day 12 [1, 3]: 3.12% | Tumor volume Day 12 [1, 3]: 27 mm^3 | Tumor volume Day 14 [1, 3]: 41 mm^3 | Tumor volume Day 0 [1, 4]: 109 mm^3 | Relative tumor proliferation rate T/C Day 3 [1, 4]: 44.97% | Tumor volume Day 3 [1, 4]: 67 mm^3 | Relative tumor proliferation rate T/C Day 5 [1, 4]: 24.07% | Tumor volume Day 5 [1, 4]: 44 mm^3 | Relative tumor proliferation rate T/C Day 7 [1, 4]: 7.97% | Tumor volume Day 7 [1, 4]: 32 mm^3 | Relative tumor proliferation rate T/C Day 10 [1, 4]: 3.62% | Tumor volume Day 10 [1, 4]: 22 mm^3 | Relative tumor proliferation rate T/C Day 12 [1, 4]: 1.91% | Tumor volume Day 12 [1, 4]: 17 mm^3 | Tumor volume Day 14 [1, 4]: 12 mm^3 | AUC(0-t) [2]: 96300 ng·h/mL | Cmax [2]: 2310 ng/mL
